Results reported in patent publication US20260138973A1, “SUBSTITUTED PYRIDINES FOR USE IN TREATING OR PREVENTING INFLAMMATORY DISEASES OR DISEASES ASSOCIATED WITH AN UNDESIRABLE IMMUNE RESPONSE” (SITRYX THERAPEUTICS LIMITED, priority 2022, published 2026).
Where a name gives a salt, the structure may show the parent alone. Read-outs that look alike come from different tables or passages of the source. One block for each compound: values may come before it.

Experiments:
[1] = system: hepatocytes; assay: Hepatocyte stability assay, mouse; assay type: in vitro ADME; conditions: 10 μM compound, 0.5×10^6 cells/mL
From the text: (§1) Defrosted cryo-preserved hepatocytes (viability >70%) were used to determine the metabolic stability of a compound via calculation of intrinsic clearance (Clint; a measure of the removal of a compound from the liver in the absence of blood flow and cell binding). Clearance data are particularly important for in vitro work as they can be used in combination with in vivo data to predict the half-life and oral bioavailability of a drug.
(§2) The metabolic stability in hepatocytes assay involves a time-dependent reaction using both positive and negative controls. The cells were pre-incubated at 37° C. then spiked with test compound (and positive control); samples were taken at pre-determined time intervals and were analysed to monitor the change in concentration of the initial drug compound over 60 minutes. A buffer incubation reaction (with no hepatocytes present) acted as a negative control and two cocktail solutions, containing compounds with known high and low clearance values (verapamil/7-hydroxycoumarin and propranolol/diltiazem), acted as positive controls. • 1. The assay was run with a cell concentration of 0.5×10^6 cells/mL in Leibovitz buffer. • 2. All compounds and controls were run in duplicate. • 3. Compound concentration was 10 μM. • 4. All compounds and controls were incubated with both cells and buffer to show turnover was due to hepatic metabolism. • 5. All wells on the incubation plate had 326.7 μL of either cells or buffer added. • 6. Prior to assay, cell and buffer-only incubation plates were preincubated for 10 mins at 37° C. • 7. The assay was initiated by adding compounds, 3.3 μL of 1 mM in 10% DMSO-90% Buffer; final DMSO concentration was 0.1%. • 8. Samples were taken at regular timepoints (0, 5, 10, 20, 40, 60 min) until 60 mins. • 9. Sample volume was 40 μL and was added to 160 μL of crash solvent (acetonitrile with internal standard) and stored on ice. • 10. At the end of the assay, the crash plates were centrifuged at 3500 rpm for 20 mins at 4° C. • 11. 80 μL of clear supernatant was removed and mixed with 80 μL of deionised water before being analysed by LC-MS/MS.
(§3) Raw LC-MS/MS data was exported to, and analysed in, Microsoft Excel for determination of intrinsic clearance. The percentage remaining of a compound was monitored using the peak area of the initial concentration as 100%. Intrinsic clearance and half-life values were calculated using a graph of the natural log of percentage remaining versus the time of reaction in minutes. Half-life (min) and intrinsic clearance (Clint in μL min^−1 10^−6 cells) values were calculated using the gradient of the graph (the elimination rate constant, k) and Equations 1 and 2.

[2] = system: hepatocytes; assay: Hepatocyte stability assay, human; assay type: in vitro ADME
From the text: as §1, §2, §3

[3] = Hepatocyte stability assay, human; assay type: in vitro ADME; conditions: cryopreserved hepatocytes; Human hepatocytes, 10 μM compound, 0.5×10^6 cells/mL; read-out: T½
From the text: as §1, §2, §3

[4] = system: IL-1β; assay: THP-1 AlphaLISA IL-1β cytokine inhibition assay (differentiated THP-1 cells, LPS then nigericin); assay type: cell-based; conditions: for IC50: THP-1 cell, PMA-differentiated, LPS 24 hr + nigericin 1 hour; for effectiveness in the IL-1β assay: THP-1 cells, result in words
Protocol: Measuring Inhibitory Effects on IL-1β Cytokine Output from THP-1s
The cytokine inhibition profiles of compounds of formula (I) were determined in a differentiated THP-1 cell assay. All assays were performed in RPMI-1640 growth medium (Gibco), supplemented with 10% fetal bovine serum (FBS; Gibco), 1% penicillin-streptomycin and 1% sodium pyruvate unless specified otherwise. The IL-1β cytokine inhibition assay was run in a background of differentiated THP-1 cells as described below. All reagents described were from Sigma-Aldrich unless specified otherwise. Compounds were prepared as 10 mM DMSO stocks.
THP-1 cells were expanded as a suspension up to 80% confluence in appropriate growth medium. Cells were harvested, suspended, and treated with an appropriate concentration of phorbol 12-myristate 13-acetate (PMA) over a 72 hr period (37° C./5% CO2).
Following 72 hrs of THP-1 cell incubation, cellular medium was removed and replaced with fresh growth media containing 1% of FBS. Working concentrations of compounds were prepared separately in 10% FBS treated growth medium and pre-incubated with the cells for 30 minutes (37° C./5% CO2). Following the 30 minute compound pre-incubation, THP-1s were treated with an appropriate concentration of LPS and the cells were subsequently incubated for a 24 hr period (37° C./5% CO2). An appropriate final concentration of Nigericin was then dispensed into the THP-1 plates and incubated for 1 hour (37° C./5% CO2) before THP-1 supernatants were harvested and collected in separate polypropylene 96-well holding plates.
Reagents from an IL-1β and IL-6 commercial kit (Perkin Elmer) were prepared and run according to the manufacturer's instructions. Subsequently, fluorescence signal detection in a microplate reader was measured (EnVision® Multilabel Reader, Perkin Elmer).
Percentage inhibition was calculated per cytokine by normalising the sample data to the high and low controls used within each plate (+/−LPS respectively). Percentage inhibition was then plotted against compound concentration and the 50% inhibitory concentration (IC50) was determined from the resultant concentration-response curve.

[5] = system: NRF2; assay: DiscoverX PathHunter NRF2 translocation assay +/-GSH in U2OS cells; assay type: cell-based; conditions: for EC50: U2OS PathHunter cells, 6 hours, read-out: NRF2 activation EC50; for NRF2 activation Emax: normalised to DMF high control
Protocol: Potency and efficacy of compounds of formula (I) against the target of interest to activate NRF2 (nuclear factor erythroid 2-related factor 2) were determined using the PathHunter NRF2 translocation kit (DiscoverX). The NRF2 translocation assay was run using an engineered recombinant cell line, utilising enzyme fragment complementation to determine activation of the Keap1-NRF2 protein complex and subsequent translocation of NRF2 into the nucleus. Enzyme activity was quantified using a chemiluminescent substrate consumed following the formation of a functional enzyme upon PK-tagged NRF2 translocation into the nucleus.
The assay was run under both +/−GSH (glutathione) conditions to determine the sensitivity of the compounds' NRF2-activating abilities to attenuation by GSH.
Additionally, a defined concentration of DMF was used as the ‘High’ control to normalise test compound activation responses to.
U2OS PathHunter express cells were thawed from frozen prior to plating. Following plating, U2OS cells were incubated for 24 hrs (37° C./5% CO2) in commercial kit provided cell medium.
Following 24 hrs of U2OS incubation, cells were directly treated with an appropriate final concentration of compound, for −GSH conditions or, for +GSH conditions, an intermediate plate containing 6× working concentrations of compound stocks was prepared in a 6 mM working concentration of GSH solution (solubilised in sterile PBS). Following a 30 minute compound-GSH pre-incubation (37° C./5% CO2) for +GSH treatment, plated U2OS cells were incubated with an appropriate final concentration of compound and GSH.
Following compound (+/−GSH) treatment, the U2OS plates were incubated for a further 6 hours (37° C./5% CO2) before detection reagent from the PathHunter NRF2 commercial kit was prepared and added to test plates according to the manufacturer's instructions. Subsequently, the luminescence signal detection was measured in a microplate reader (PHERAstar®, BMG Labtech).
Percentage activation was calculated by normalising the sample data to the high and low controls used within each plate (+/−DMF). Percentage activation/response was then plotted against compound concentration and the 50% activation concentration (EC50) was determined from the plotted concentration-response curve.

[6] = system: IL-6; assay: THP-1 AlphaLISA IL-6 cytokine inhibition assay (differentiated THP-1 cells, LPS then nigericin); assay type: cell-based; conditions: THP-1 cell, PMA-differentiated, LPS 24 hr + nigericin 1 hour
Protocol: The cytokine inhibition profiles of compounds of formula (I) were determined in a differentiated THP-1 cell assay. All assays were performed in RPMI-1640 growth medium (Gibco), supplemented with 10% fetal bovine serum (FBS; Gibco), 1% penicillin-streptomycin and 1% sodium pyruvate unless specified otherwise. The IL-1β cytokine inhibition assay was run in a background of differentiated THP-1 cells as described below. All reagents described were from Sigma-Aldrich unless specified otherwise. Compounds were prepared as 10 mM DMSO stocks. THP-1 cells were expanded as a suspension up to 80% confluence in appropriate growth medium. Cells were harvested, suspended, and treated with an appropriate concentration of phorbol 12-myristate 13-acetate (PMA) over a 72 hr period (37° C./5% CO2). Following 72 hrs of THP-1 cell incubation, cellular medium was removed and replaced with fresh growth media containing 1% of FBS. Working concentrations of compounds were prepared separately in 10% FBS treated growth medium and pre-incubated with the cells for 30 minutes (37° C./5% CO2). […] Subsequently, fluorescence signal detection in a microplate reader was measured (EnVision® Multilabel Reader, Perkin Elmer). Percentage inhibition was calculated per cytokine by normalising the sample data to the high and low controls used within each plate (+/−LPS respectively).

[7] = Hepatocyte stability assay, mouse; assay type: in vitro ADME; conditions: cryopreserved hepatocytes, 10 μM compound, 0.5×10^6 cells/mL, read-out: T½
From the text: as §1, §2, §3

[8] = Human hepatocytes, 10 μM compound, 0.5×10^6 cells/mL

Clint [1]: 95 μL min^−1 10^−6 cells
Clint [2, 8]: 21 μL min^−1 10^−6 cells
half-life at 10 μM [3]: 59 min
IC50 ([4]; Homo sapiens): > 100 µM
EC50 ([5]; +GSH): > 100 µM
EC50 ([5]; −GSH): > 100 µM
Compound: C=C(Cc1ccccc1Cl)C(=O)O [2-(2-chlorobenzyl)acrylic acid, reference compound]
NRF2 activation Emax ([5]; +GSH): 9%
NRF2 activation Emax ([5]; −GSH): 2%

Compound: C=C(CC(=O)OCCCCCCCC)C(=O)O [4-octyl itaconate, reference compound]
Clint [1]: 351 μL min^−1 10^−6 cells
T½ [1]: 4 min
Clint [2, 8]: 401 μL min^−1 10^−6 cells
T½ [2, 8]: 4 min
IC50 [4]: 37.8 µM
IC50 [6]: 19.1 µM
EC50 ([5]; +GSH): 28.9 µM
NRF2 activation Emax ([5]; +GSH): 148%
EC50 ([5]; −GSH): 22.1 µM
NRF2 activation Emax ([5]; −GSH): 165%

Compound: C=C(Cc1nc(-c2ccc(OCCCC)nc2)no1)C(=O)O [Example 1, 2-((3-(6-butoxypyridin-3-yl)-1,2,4-oxadiazol-5-yl)methyl)acrylic acid]
IC50 ([4]; Homo sapiens): > 100 µM
effectiveness in the IL-1β assay [4]: not effective
EC50 ([5]; +GSH): 19.5 µM
NRF2 activation Emax ([5]; +GSH): 130%
EC50 ([5]; −GSH): 20.8 µM
NRF2 activation Emax ([5]; −GSH): 192.5%

Compound: C=C(Cc1nc(-c2ccc(OCCCC)cn2)no1)C(=O)O [Example 2, 2-((3-(5-butoxypyridin-2-yl)-1,2,4-oxadiazol-5-yl)methyl)acrylic acid]
IC50 ([4]; Homo sapiens): > 100 µM
effectiveness in the IL-1β assay [4]: not effective

Compound: C=C(Cc1nc(-c2ncc(OCCCC)cc2Cl)no1)C(=O)O [Example 3, 2-((3-(5-butoxy-3-chloropyridin-2-yl)-1,2,4-oxadiazol-5-yl)methyl)acrylic acid]
Clint [1]: 133 μL min^−1 10^−6 cells
half-life at 10 μM [7]: 9.27 min
Clint [2, 8]: 7.18 μL min^−1 10^−6 cells
stability (intrinsic clearance and half-life) compared to 4-octyl itaconate and 2-(2-chlorobenzyl)acrylic acid ([2]; mouse and/or human cells, result in words): more stable
half-life at 10 μM [3]: 181 min
IC50 ([4]; Homo sapiens): 2.09 µM
EC50 ([5]; +GSH): 11.4 µM
NRF2 activation Emax ([5]; +GSH): 78.58%
EC50 ([5]; −GSH): 22.7 µM
NRF2 activation Emax ([5]; −GSH): 172.5%

Compound: C=C(Cc1nc(-c2ncc(Oc3ccc(F)cc3)cc2Cl)no1)C(=O)O [Example 4, 2-((3-(3-chloro-5-(4-fluorophenoxy)pyridin-2-yl)-1,2,4-oxadiazol-5-yl)methyl)acrylic acid]
IC50 ([4]; Homo sapiens): 2.12 µM
EC50 ([5]; +GSH): 15.5 µM
NRF2 activation Emax ([5]; +GSH): 145%
EC50 ([5]; −GSH): 7.07 µM
NRF2 activation Emax ([5]; −GSH): 208.56%

IC50 ([4]; Homo sapiens): > 100 µM
IC50 ([6]; Homo sapiens): > 100 µM
Compound: COC(=O)/C=C/C(=O)O [monomethyl fumarate, reference compound]
